For five molecules, IC50 and EC50 results are on record in US11739074B2, “Ras inhibitors” (Revolution Medicines, Inc., priority 2019, dated 2023).

The test system of test [1] is AsPC-1 (K-Ras G12D). In words: CellTiter-Glo cell viability assay, AsPC-1. The test is classed as cell-based. Particulars: Homo sapiens, ASPC1, 120 h. The essentials:
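Test compounds were dispensed directly onto seeded cells, and on day 5 plates were brought to room temperature for about 30 minutes before CellTiter-Glo luminescence was read. Signals were expressed as percent of the mean DMSO control and fitted with a four-parameter logistic model.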
Background: Cellular ATP, detected with luciferase, serves as a proxy for viable cell number.

The target in a further test is T1, NRAS G12C (Homo sapiens, UniProt P01111+P62937, G12C).
T1 construct: His6
T1 sequence (P01111 whole entry G12C): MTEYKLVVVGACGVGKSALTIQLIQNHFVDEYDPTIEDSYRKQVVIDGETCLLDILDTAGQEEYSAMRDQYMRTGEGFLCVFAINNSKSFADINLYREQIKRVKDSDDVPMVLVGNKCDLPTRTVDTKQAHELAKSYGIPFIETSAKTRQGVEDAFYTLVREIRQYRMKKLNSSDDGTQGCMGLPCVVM
T1 sequence (P62937 whole entry): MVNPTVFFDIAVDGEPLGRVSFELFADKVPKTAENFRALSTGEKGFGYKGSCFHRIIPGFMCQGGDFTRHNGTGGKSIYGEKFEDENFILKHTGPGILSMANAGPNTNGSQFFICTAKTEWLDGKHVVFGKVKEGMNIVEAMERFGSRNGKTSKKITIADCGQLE
In words: Ras-Raf disruption/FRET/MOA assay, NRAS G12C. The test is classed as biochemical. The text has this:
(§1) Disruption of B-Raf Ras-Binding Domain (BRAF^RBD) Interaction with K-Ras by Compounds of the Invention (Also Called a FRET Assay or an MOA Assay)
(§2) Note—The following protocol describes a procedure for monitoring disruption of K-Ras G12C (GMP-PNP) binding to BRAF^RBD by a compound of the invention. This protocol may also be executed substituting other Ras proteins or nucleotides, such as K-Ras G12D and K-Ras G13D.
(§3) The purpose of this biochemical assay was to measure the ability of test compounds to facilitate ternary complex formation between a nucleotide-loaded K-Ras isoform and Cyclophilin A; the resulting ternary complex disrupts binding to a BRAF^RBD construct, inhibiting K-Ras signaling through a RAF effector.
(§4) In assay buffer containing 25 mM HEPES pH 7.3, 0.002% Tween20, 0.1% BSA, 100 mM NaCl and 5 mM MgCl2, tagless Cyclophilin A, His6-K-Ras-GMPPNP, and GST-BRAF^RBD were combined in a 384-well assay plate at final concentrations of 25 μM, 12.5 nM, and 50 nM, respectively. Compound was present in plate wells as a 10-point 3-fold dilution series starting at a final concentration of 30 μM. After incubation at 25° C. for 3 hours, a mixture of anti-His Eu-W1024 and anti-GST allophycocyanin was then added to assay sample wells at final concentrations of 10 nM and 50 nM, respectively, and the reaction incubated for an additional 1.5 hours. […] Compounds that facilitate disruption of a K-Ras:RAF complex were identified as those eliciting a decrease in the TR-FRET ratio relative to DMSO control wells.

The next test concerns the target KRAS G12S (Homo sapiens, UniProt P01116+P62937, G12S). In words: Ras-Raf disruption/FRET/MOA assay, KRAS G12S. The class given is biochemical.
Source text: as §1, §2, §3, §4

A further test deals with KRAS G12D (Homo sapiens, UniProt P01116+P62937, G12D). Nature of the test: Ras-Raf disruption/FRET/MOA assay, KRAS G12D. The test is classed as biochemical.
Chain of KRAS G12D (P01116 1-169 isoform P01116-2 G12D limits assumed): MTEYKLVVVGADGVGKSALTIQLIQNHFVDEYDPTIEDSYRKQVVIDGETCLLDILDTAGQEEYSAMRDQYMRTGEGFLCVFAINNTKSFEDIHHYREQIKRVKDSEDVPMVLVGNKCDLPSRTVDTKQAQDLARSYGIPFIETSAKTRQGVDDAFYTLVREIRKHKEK
Chain of KRAS G12D (P62937 whole entry): as the sequence (P62937 whole entry) above
Source text: as §1, §2, §3, §4

Another test concerns the target KRAS G13C (Homo sapiens, UniProt P01116+P62937, G13C). In words: Ras-Raf disruption/FRET/MOA assay, KRAS G13C. The class given is biochemical.
Source text: as §1, §2, §3, §4

A further test deals with KRAS G13D (Homo sapiens, UniProt P01116+P62937, G13D). Nature of the test: Ras-Raf disruption/FRET/MOA assay, KRAS G13D. The class given is biochemical.
Chain of KRAS G13D (P01116 1-169 isoform P01116-2 G13D limits assumed): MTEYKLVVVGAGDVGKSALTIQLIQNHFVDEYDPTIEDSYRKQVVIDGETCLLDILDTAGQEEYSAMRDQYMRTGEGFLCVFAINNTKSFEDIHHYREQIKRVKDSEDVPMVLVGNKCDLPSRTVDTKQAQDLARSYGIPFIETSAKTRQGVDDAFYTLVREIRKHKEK
Chain of KRAS G13D (P62937 whole entry): as the sequence (P62937 whole entry) above
Source text: as §1, §2, §3, §4

The target in a further test is KRAS G12V (Homo sapiens, UniProt P01116+P62937, G12V). In words: Ras-Raf disruption/FRET/MOA assay, KRAS G12V. The class given is biochemical.
Chain of KRAS G12V (P01116 1-169 isoform P01116-2 G12V limits assumed): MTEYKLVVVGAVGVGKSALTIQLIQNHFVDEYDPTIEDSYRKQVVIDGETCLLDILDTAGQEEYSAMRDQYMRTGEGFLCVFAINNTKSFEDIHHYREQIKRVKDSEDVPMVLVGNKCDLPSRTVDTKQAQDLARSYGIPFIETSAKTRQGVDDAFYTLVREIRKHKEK
Chain of KRAS G12V (P62937 whole entry): as the sequence (P62937 whole entry) above
Source text: as §1, §2, §3, §4

In another test the target is KRAS WT (Homo sapiens, UniProt P01116+P62937). In words: Ras-Raf disruption/FRET/MOA assay, KRAS WT. The test is classed as biochemical.
Chain of KRAS WT (P01116 1-169 isoform P01116-2 limits assumed): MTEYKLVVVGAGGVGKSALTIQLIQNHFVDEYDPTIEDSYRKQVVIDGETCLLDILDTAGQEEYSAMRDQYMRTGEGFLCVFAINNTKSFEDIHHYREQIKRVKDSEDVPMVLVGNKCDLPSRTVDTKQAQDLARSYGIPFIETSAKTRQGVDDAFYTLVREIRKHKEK
Chain of KRAS WT (P62937 whole entry): as the sequence (P62937 whole entry) above
Source text: as §1, §2, §3, §4

For a further test, the target named is KRAS G12C (Homo sapiens, UniProt P01116+P62937, G12C). In words: Ras-Raf disruption/FRET/MOA assay, KRAS G12C. The test is classed as biochemical.
Chain of KRAS G12C (P01116 1-169 isoform P01116-2 G12C limits assumed): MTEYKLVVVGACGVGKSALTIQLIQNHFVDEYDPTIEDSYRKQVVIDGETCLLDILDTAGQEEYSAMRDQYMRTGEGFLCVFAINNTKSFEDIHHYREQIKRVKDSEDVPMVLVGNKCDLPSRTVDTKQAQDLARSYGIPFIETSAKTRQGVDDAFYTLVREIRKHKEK
Chain of KRAS G12C (P62937 whole entry): as the sequence (P62937 whole entry) above
Source text: as §1, §2, §3, §4

For test [2], the system named is AsPC-1 (K-Ras G12D). Nature of the test: Potency assay: pERK in AsPC-1 cells. The class given is cell-based. Particulars: Homo sapiens, ASPC1, read-out: pERK EC50 (AsPC-1 KRAS G12D).
Where [3] appears, read: NRAS G12C, read-out: NRAS G12C FRET data IC50.
The mark [4] stands for this setting: disruption of BRAF RBD binding, with Cyclophilin A, read-out: KRAS G12S FRET IC50.
Where [5] appears, read: disruption of BRAF RBD binding, with Cyclophilin A, read-out: KRAS G12D FRET IC50.
Setting [6] is: disruption of BRAF RBD binding, with Cyclophilin A, read-out: KRAS G13C FRET IC50.
The mark [7] stands for this setting: disruption of BRAF RBD binding, with Cyclophilin A, read-out: KRAS G13D FRET IC50.
Setting [8] is: disruption of BRAF RBD binding, with Cyclophilin A, read-out: KRAS G12V FRET IC50.
The mark [9] stands for this setting: disruption of BRAF RBD binding, with Cyclophilin A, read-out: KRAS WT FRET IC50.
Setting [10] is: disruption of BRAF RBD binding, with Cyclophilin A, read-out: KRAS G12C FRET IC50.
The mark [11] stands for this setting: read-out: AsPC-1 Cell Viability IC50, AsPC-1, K-Ras G12D, 5-day treatment.
[12] abbreviates: NRAS G12C FRET data IC50, NRAS G12C.
Where [13] appears, read: AsPC-1, K-Ras G12D, 5-day treatment, read-out: AsPC-1 Cell Viability IC50.

Like-named read-outs stand apart in the source and are kept apart here.

Chain of KRAS G12S (P01116 1-169 isoform P01116-2 G12S limits assumed): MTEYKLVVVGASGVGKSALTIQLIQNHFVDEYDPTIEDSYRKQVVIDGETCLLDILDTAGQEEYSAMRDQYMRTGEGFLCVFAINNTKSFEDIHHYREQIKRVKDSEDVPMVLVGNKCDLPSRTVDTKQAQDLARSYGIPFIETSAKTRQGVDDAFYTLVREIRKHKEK
Chain of KRAS G12S (P62937 whole entry): as the sequence (P62937 whole entry) above
Chain of KRAS G13C (P01116 1-169 isoform P01116-2 G13C limits assumed): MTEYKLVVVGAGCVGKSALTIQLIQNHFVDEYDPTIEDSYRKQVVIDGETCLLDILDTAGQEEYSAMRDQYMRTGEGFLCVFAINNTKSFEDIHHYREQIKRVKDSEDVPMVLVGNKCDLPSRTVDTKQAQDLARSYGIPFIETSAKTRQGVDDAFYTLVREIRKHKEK
Chain of KRAS G13C (P62937 whole entry): as the sequence (P62937 whole entry) above

A word on the IC50: it is the concentration needed to halve the response being measured. Usually EC50 stands for the concentration needed to bring the measured effect to its halfway point. For `CCn1c(-c2cnccc2COC)c2c3cc(ccc31)-c1cc(O)cc(c1)C[C@H](NC(=O)[C@H](C(C)C)N(C)C(=O)CN(C)C(=O)[C@@H]1[C@H](C)N1[S@@+]([O-])C(C)(C)C)C(=O)N1CCC[C@H](N1)C(=O)OCC(C)(C)C2` (some centres unmarked) [Compound 54], the IC50 with AsPC-1 (K-Ras G12D) [1] (read-out: AsPC-1 Cell Viability IC50) lay within 1 to 10 µM; at NRAS G12C (setting [3]) it was 0.01 to 0.1 µM; on KRAS G12S (setting [4]) it was 0.01 to 0.1 µM; at KRAS G12D (setting [5]), 0.1 to 1 µM; at KRAS G13C (setting [6]) it was 0.01 to 0.1 µM; at KRAS G13D (setting [7]), 0.1 to 1 µM. Further, the IC50 on KRAS G12V (setting [8]) is 0.1 to 1 µM; on KRAS WT (setting [9]) it was 0.01 to 0.1 µM; on KRAS G12C (setting [10]), 0.01 to 0.1 µM. Further, the EC50 with AsPC-1 (K-Ras G12D) [2] is under 5 µM.
Take `CCn1c(-c2cccnc2[C@H](C)OC)c2c3cc(ccc31)-c1cc(O)cc(c1)C[C@H](NC(=O)[C@H](C(C)C)N(C)C(=O)CN(C)C(=O)[C@H]1N[C@H]1C1CC1)C(=O)N1CCC[C@H](N1)C(=O)OCC(C)(C)C2` [Compound 134]: the 50% inhibitory concentration (IC50) in the test with AsPC-1 (K-Ras G12D) [1] (setting [11]) lay in the range of 1 to 10 µM; on NRAS G12C (setting [12]) it was 0.01 to 0.1 µM; against KRAS G12S, 0.01 to 0.1 µM; against KRAS G12D, 0.1 to 1 µM; against KRAS G13C it was 0.01 to 0.1 µM; at KRAS G13D it was 0.1 to 1 µM. The 50% inhibitory concentration (IC50) against KRAS G12V lay within 0.1 to 1 µM; at KRAS WT it was 0.01 to 0.1 µM; against KRAS G12C it was 0.01 to 0.1 µM. In the test on AsPC-1 (K-Ras G12D) [2], the EC50 was under 5 µM.
As to `CCn1c(-c2cnccc2COC)c2c3cc(ccc31)-c1cc(O)cc(c1)C[C@H](NC(=O)[C@H](C(C)C)N(C)C(=O)CN1C(=O)[C@@H]3[C@H](C1=O)N3Cc1ccccc1)C(=O)N1CCC[C@H](N1)C(=O)OCC(C)(C)C2` (stereo partly drawn) [Example 55, (2S)-2-(2-((1R,5S)-6-benzyl-2,4-dioxo-3,6-diazabicyclo[3.1.0]hexan-3-yl)-N-methylacetamido)-N-((6^3S,4S)-1^1-ethyl-2^5-hydroxy-1^2-(4-(methoxymethyl)pyridin-3-yl)-10,10-dimethyl-5,7-dioxo-6^1,6^2,6^3,6^4,6^5,6^6-hexahydro-1^1H-8-oxa-1(5,3)-indola-6(1,3)-pyridazina-2(1,3)-benzenacycloundecaphane-4-yl)-3-methylbutanamide], the IC50 in the test on AsPC-1 (K-Ras G12D) [1] (setting [13]) is over 10 µM; on NRAS G12C (setting [3]), 0.1 to 1 µM; at KRAS G12S (setting [4]), 0.1 to 1 µM; on KRAS G12D (setting [5]) it was over 10 µM; on KRAS G13C (setting [6]), 0.1 to 1 µM; at KRAS G13D (setting [7]), 1 to 10 µM. In addition, the IC50 at KRAS G12V (setting [8]) lay within 0.1 to 1 µM; at KRAS WT (setting [9]) it was 1 to 10 µM; at KRAS G12C (setting [10]), 0.1 to 1 µM.
Take `CCn1c(-c2cnccc2COC)c2c3cc(ccc31)-c1cc(O)cc(c1)C[C@H](NC(=O)[C@H](C(C)C)N(C)C(=O)CN(C)C(=O)[C@H]1N[C@H]1c1ccccc1)C(=O)N1CCC[C@H](N1)C(=O)OCC(C)(C)C2` [Compound 116]: the IC50 with AsPC-1 (K-Ras G12D) [1] (setting [11]) was over 10 µM; at NRAS G12C (setting [12]), 0.1 to 1 µM; against KRAS G12S it was 0.1 to 1 µM; against KRAS G12D, 1 to 10 µM; against KRAS G13C, 0.1 to 1 µM; against KRAS G13D, 0.1 to 1 µM. Besides, the IC50 at KRAS G12V fell in the range of 0.1 to 1 µM; against KRAS WT, 0.01 to 0.1 µM; at KRAS G12C it was 0.1 to 1 µM.
In the case of `CCn1c(-c2cccnc2[C@H](C)OC)c2c3cc(ccc31)-c1cc(O)cc(c1)C[C@H](NC(=O)[C@H](C(C)C)N(C)C(=O)N1CCN(C(=O)[C@@H]3CN3)CC1)C(=O)N1CCC[C@H](N1)C(=O)OCC(C)(C)C2` (atropisomer, axis not shown) [Compound 197], the IC50 in the test with AsPC-1 (K-Ras G12D) [1] (setting [13]) fell in the range of 1 to 10 µM; on NRAS G12C (setting [3]), 0.01 to 0.1 µM; on KRAS G12S (setting [4]), 0.01 to 0.1 µM; at KRAS G12D (setting [5]) it was 0.1 to 1 µM; at KRAS G13C (setting [6]) it was 0.01 to 0.1 µM; at KRAS G13D (setting [7]) it was 0.01 to 0.1 µM. Further, the IC50 at KRAS G12V (setting [8]), on KRAS WT (setting [9]) and on KRAS G12C (setting [10]) was 0.01 to 0.1 µM in each case.
